Assay results taken from ChEMBL document CHEMBL5604063, “ASAP - DENV-2 NS2B-NS3 protease fluorescence dose response” (2024).
Values joined by “and” are separate entries in the source; they are usually repeats but may differ in a detail not shown here. Identical values can stand only once.

Key:
Genome polyprotein [1] = target: T1, Genome polyprotein (dengue virus type 2, UniProt P29990); assay type: functional, Thailand/16681/1984
Genome polyprotein [2] = target: T1, Genome polyprotein; assay type: functional, Thailand/16681/1984; remark: listed apart in the source

T1 sequence (P29990 1346-1475 limits assumed): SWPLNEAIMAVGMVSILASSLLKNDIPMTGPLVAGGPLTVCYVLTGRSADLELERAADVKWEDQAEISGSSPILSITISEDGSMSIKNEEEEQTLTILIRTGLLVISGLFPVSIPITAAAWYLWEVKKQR
T1 sequence (P29990 1476-2093 limits assumed): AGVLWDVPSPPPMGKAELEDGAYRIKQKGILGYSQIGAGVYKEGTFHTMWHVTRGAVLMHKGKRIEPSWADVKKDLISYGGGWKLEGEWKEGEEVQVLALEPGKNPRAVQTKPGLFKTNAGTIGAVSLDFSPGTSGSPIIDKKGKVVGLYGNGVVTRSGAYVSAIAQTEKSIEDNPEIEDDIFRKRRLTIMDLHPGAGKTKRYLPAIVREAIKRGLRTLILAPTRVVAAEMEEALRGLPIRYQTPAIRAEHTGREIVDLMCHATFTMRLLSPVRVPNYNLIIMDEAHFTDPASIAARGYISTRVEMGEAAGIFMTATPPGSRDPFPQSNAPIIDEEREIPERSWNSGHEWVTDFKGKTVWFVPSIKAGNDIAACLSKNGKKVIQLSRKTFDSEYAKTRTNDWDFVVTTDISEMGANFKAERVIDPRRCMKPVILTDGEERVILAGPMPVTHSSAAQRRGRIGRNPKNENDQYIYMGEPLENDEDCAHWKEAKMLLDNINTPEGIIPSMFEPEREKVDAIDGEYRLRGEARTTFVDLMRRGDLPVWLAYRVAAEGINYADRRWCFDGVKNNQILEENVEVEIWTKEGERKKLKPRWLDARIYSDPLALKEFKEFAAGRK

| SMILES | IC50 (Genome polyprotein [1]) | IC50 (Genome polyprotein [2]) |
| --- | --- | --- |
| Cc1c(C(=O)Nc2ccc3c(c2)C[C@H](C(N)=O)O3)cc(C2CC2)n1C | > 99.5 µM | > 100 µM |
| Cc1c(C(=O)Nc2ccc3c(c2)CCC(=O)N3CC2CCC2)cc(C2CC2)n1C | > 99.5 µM | > 100 µM |
| Clc1cc(CNc2ncc3c(n2)CNC3)c2cn[nH]c2c1 | > 99.5 µM | > 100 µM |
| CC(C)NC(=O)C[C@H]1NCc2cc(NC(=O)c3cc(Cl)cc4[nH]ncc34)ccc21 | > 99.5 µM | > 100 µM |
| O=C(NCC(F)F)[C@H](Nc1ccc2c(c1)CNC2)c1cc(Cl)cc2cccnc12 | 93 µM | 128 µM and 125 µM |
| CS(=O)(=O)NC(=O)C[C@H]1NCc2cc(NC(=O)c3cc(Cl)cc4[nH]ncc34)ccc21 | > 296 µM | > 300 µM |
| CC(C)(C)NC(=O)C[C@H]1NCc2cc(NC(=O)c3cc(Cl)cc4[nH]ncc34)ccc21 | > 99.5 µM | > 100 µM |
| CNC(=O)C[C@H]1NCc2cc(NC(=O)c3cc(Cl)cc4[nH]ncc34)ccc21 | > 99.5 µM | > 100 µM |
| Cc1c(C(=O)Nc2cc(C3CCOCC3)ccn2)cc(C2CC2)n1C | > 99.5 µM | > 100 µM |
| N#Cc1cccc(-c2nc3c(C(=O)Nc4ccc(F)cc4)cc(Cl)cc3[nH]2)c1 | > 99.5 µM | > 100 µM |
| COC(=O)[C@H]1NCc2cc(NC(=O)c3cc(F)cc4[nH]ncc34)ccc21 | > 99.5 µM | > 100 µM |
